Measured values: patent US11071697B2, “Metal-carbon structure hybrid formulation for dental use in the treatment of dental hypersensitivity, demineralization and cavities” (UNIVERSIDAD DE CHILE, priority 2016, dated 2021)

Assays:
[1] = Solubility of the salt as ammonia metal complex; type: physicochemical; conditions: impossible in aqueous solution
Excerpt: In FIG. 6 it is observed the absorption spectrum UV/Visible which confirms this structure.
The shift toward smaller wavelengths gives an account of the formation of ammonia metal complex which is observed in an increase of the solubility of the salt in this solution which allows to reach fluoride concentrations close to 30,000 ppm, which is impossible in aqueous solution.

(TPH1) human cells = assay: Cell viability by mitochondrial activity assay (MTT); type: cell-based; conditions: FIG. 2
Excerpt: FIG. 2. Cell viability assay using mitochondrial activity technique (MTT). THP1 cell type.

[2] = test system: main bacterial species associated with dental caries; assay: In vitro antibacterial capacity, inhibition halos; type: cell-based; conditions: composition: 25,000 ppm aqueous (Cu(NH3)6)F2 ammonia with 0.002 g/ml graphite oxide; FIG. 1
Excerpt: FIG. 1. […] The dark zone corresponds to the area where there is no bacterial growth. […] A) Chlorhexidine, B) Silver Diamine Fluorine, C) Silane Fluorine, D) Composition of the Invention. […] These tests have been performed on the main bacterial species associated with dental caries.

Row | SMILES | fluoride concentrations reached in ammonia solution [1] | toxicity (in words) ((TPH1) human cells) | areas of inhibition halos [2]
1 | N.N.N.N.N.N.[Cu+2].[F-].[F-] [Cu(NH3)6F2] | ~30,000 ppm |  | 
2 | [H]/N=C(\N/C(=N/[H])NCCCCCCNC(=N)NC(=N)Nc1ccc(Cl)cc1)Nc1ccc(Cl)cc1 [chlorhexidine] |  | a degree of toxicity | 659 mm^2
